In patent publication US11945787B2, “Substituted imidazoles for preventing and/or treating cell or tissue necrosis” (Ela Pharma Ltd, priority 2015, dated 2024):
Where a SMILES comes first, the peptide text is derived from it. The star is where a group is joined. MeOSuc = COC(=O)CCC(=O)*; CH2Cl = ClC*

Assays:
[1] = system: C57BL/6J mice, closed head trauma; experiment: Closed head injury (traumatic brain injury) in mice; type: in vivo, mouse
Method: The closed head injury method was used to determine the effect of the elastase inhibitor on the development of brain necrosis and on the neurological status assessed using the neurological severity score (NSS). NSS test was performed 1 hour after trauma. During NSS test, various reflexes, ability to move, beam balance, beam walk and other behavior parameters like seeking and exiting from a cycle were monitored. Development of necrosis was measured by assessing necrotic space in brain slices stained with 2,3,5-triphenyl-2H-tetrazolium chloride (TTC).
C57BL/6J mice weighing 40+4 g (mean±SD) were used in the study. A weight-drop device was used to deliver a shock to the scull resulting in a controlled cerebral injury. Impact was delivered by a silicone-coated 5 mm metal tip extruding from a platform that falls down a frame. This model of cranial injury has been used in previous studies [Feldman Z et al., J Neurosurg (1995) 83:1060-1066; Shapira Y et al., J Neurosurg Anesthesiol (1995) 7:17-25].). All animal procedures and care techniques were approved by the Ben-Gurion University of the Negev Committee for the Ethical Care and Use of Animals in Research.
Mice were prepared for surgery by anesthetization with isoflurane and allowed to breathe spontaneously. Maintenance of adequate anesthesia for the experimental procedure was confirmed by loss of corneal reflexes. Once the corneal reflexes were abolished, a midline scalp incision was made and the scalp and underlying muscles were moved laterally. Closed head trauma (CHT) was delivered to the skull over the frontal portion of the left cerebral hemisphere. 1 minute after the trauma 100 μg of elastase inhibitor II or III in its vehicle (DMSO solution), were injected intracerebraspinaly by direct delivery into the cisterna magna. The vehicle itself was previously found to have no effect.
In addition to the wild type C57BL/6J mice, neutrophil elastase knockout mice strain B6.129X1-Elane were also examined. All procedures were approved by the Ethics Committee of Ben-Gurion University of Negev.

elastase-like activity [2] = experiment: Elastase-like activity in lysates of KCN-treated U-937 cells (MAAPV substrate); type: biochemical, human; conditions: treatment of intact cells
PC12 cells [3] = experiment: Rescue of KCN-treated PC12 cells, XTT viability up to 48 h; type: cell-based, rat; conditions: 5 h KCN, then full DMEM 24 or 48 hours; FIG. 7C
PC12 cells [4] = experiment: KCN-induced necrosis of PC12 cells, LDH release; type: cell-based, rat; conditions: for inhibition at 0.0001 µM / inhibition at 0.001 µM / inhibition at 0.01 µM / inhibition at 0.1 µM / inhibition at 1 µM: Rattus norvegicus, PC-12, 5 h, KCN, PC12, LDH release (Table 5); for inhibition at 0.0001 µM: 0.1 nM, read-out: % protection at 0.1 nM; for inhibition at 0.001 µM: 1 nM, read-out: % protection at 1 nM; for inhibition at 0.01 µM: 10 nM, read-out: % protection At 10 nM; for inhibition at 0.1 µM: read-out: % protection at 0.1 μM; for inhibition at 1 µM: read-out: % protection at 1 μM
Method: The rat pheochromocytoma PC12 cell line was propagated in DMEM medium (Beit Haemek, Israel), supplemented with 5% heat-inactivated calf serum, 10% heat-inactivated horse serum, 2 mM L-glutamine, 100 U/ml penicillin and 100 μg/ml streptomycin. PC12 cells in logarithmic phase were seeded at a concentration of 1.2×10^5/well in 96-well plates and incubated overnight.
Thereafter, the cells were washed twice and maintained in RPMI-1640 (U-937cells) and DMEM (PC-12 cells) glucose-free medium, supplemented with 2 mM pyruvate and 10% dialyzed FCS for one hour. Then cells were treated with or without KCN (Merck, Germany) at the indicated concentrations for 7 hours (U-937 cells), or for 5 hours (PC12 cells).
Elastase inhibitors II (MeOSuc-AAPA-CMK) and elastase inhibitor III (MeOSuc-AAPV-CMK) were purchased from Calbiochem-Novabiochem, USA. Compound Gly-Phe diazomethylketone was purchased from MP Biomedicals, USA. All the compounds disclosed in Table 1 hereinabove were purchased from ChemDiv, San Diego, CA. The compounds were dissolved in DMSO and were administered 30 min before addition of the cell death inducer. The final concentration of DMSO, added to all samples, was 0.1%, which had no effect by itself siRNA and cell transfection
The amount of LDH released from lysed cells is a sensitive measure of cell death. Necrotic cell death was measured in 96-well plates using Promega CytoTox 96 LDH assay kit. LDH content from the cells lysed in 0.1% Triton X-100 for 10 min was used as an index of total LDH. The LDH released in culture medium was used as an index of necrotic cell death and the percentage from total LDH was calculated. The protection by the inhibitor was calculated based on comparing percentage of LDH release in the presence and in the absence of the inhibitor. The inhibitors were also added to totals, blanks and controls. Absorbance at 490 nm was measured by ELISA reader (BioTec).
These compounds were tested for their ability to inhibit necrosis induced by KCN in PC12 cells. The necrotic mode of cell death in this system was validated as previously described. PC12 cells were challenged with KCN as described above. The protective results of the compounds against KCN-induced necrosis assessed using LDH release method are shown below in Table 5. The IC50 values of these inhibitors is in the range of tens to single nanomolar.

Cathepsin C = Cathepsin C activity in lysates of siRNA-treated cells exposed to KCN; type: cell-based; conditions: KCN 10 mM 30 minutes; FIG. 5B
U-937 cells = experiment: siRNA transfection, KCN-induced necrosis of U-937 cells, LDH release; type: cell-based, human; conditions: U-937, 7 hours KCN; FIG. 4A
PC12 cells [5] = experiment: siRNA transfection, KCN-induced necrosis of PC12 cells, LDH release; type: cell-based, rat; conditions: PC12, 5 hours KCN; FIG. 4C
elastase-like activity [6] = experiment: Elastase-like activity in lysates of siRNA-treated cells exposed to KCN; type: cell-based; conditions: KCN 10 mM 30 minutes; FIG. 5A
[7] = system: Balb/c mice, myocardial ischemia/reperfusion; experiment: Myocardial ischemia/reperfusion in mice; type: in vivo, mouse; conditions: 30 mg/kg IV 20 min before ischemia and at reperfusion; 30 min ischemia, 6 h reperfusion
Method: Male Balb/c mice (20-25 g; Charles River; Milan; Italy) were housed in a controlled environment and provided with standard rodent chow and water.
Mice were subjected to 30 minutes of myocardial ischemia and 6 hours of reperfusion, using published methodologies (Yet et al, 2001). Study groups consisted of sham, vehicle control, and inhibitor (n=8/group, see below). Briefly, mice were anesthetized with pentobarbital sodium (60 mg/kg body weight) with additional doses given as needed to maintain anesthesia. Mice were intubated and mechanically ventilated with 100% oxygen. Mice received a first IV dose of the active inhibitor 1-(2-(4-methylpiperazin-1-yl)-4,5-dihydro-1H-imidazol-1-yl)propan-1-one (M059-0891) (30 mg/kg) and their chest was opened. […] The area of necrosis, as a % of AAR was quantified. […]
After the reperfusion period, 1 mL/kg of a 4% thioflavin S solution is injected IV in order to delineate the no-reflow area. […] The areas of ischemic and nonischemic regions are computed and expressed as a percentage of the slice, as are the % of necrotic and non-necrotic tissue. […] AAR (unstained blue area) is expressed as a percentage of the LV mass. The extent of necrosis is calculated as a percentage of the LV mass, and the infarct size expressed as a percentage of the AAR (infarct size=extent of necrosis/extent of AAR).

[8] = system: C57BL/6J mice, acetaminophen hepatotoxicity; experiment: APAP-induced liver toxicity in mice; type: in vivo, mouse; conditions: IP 4 hours after APAP 300 mg/kg; measured 24 hours; dose dependent
Method: Wild type C57BL/6J mice weighing 23+3 grams were used, 6 mice per treatment. The mice were obtained from Harlan (Israel). All animal procedures and care techniques were approved by the Ben-Gurion University of the Negev Committee for the Ethical Care and Use of Animals in Research. Mice were fast for 16h prior to administration of a single intraperitoneal (i. p.) dose of acetaminophen (N-acetyl-p-aminophenol) APAP (300 mg/kg). 4 hours after the APAP injection, the mice were injected i. p. with the tested compound, dissolved in vehicle (20% DMSO in PBS). The control mice were injected with the vehicle only. 24h after APAP injection, the mice were sacrificed and blood collected from the heart. Heparin was used as an anti-clotting additive for plasma collection. The plasma samples were centrifuged at 4000 g at room temperature for 10 min. The supernatant was collected for measurement of ALT and AST levels. The enzyme levels were measured with an autoanalyzer in Soroka's Biochemistry Medical Center.

Row | Molecule | Cathepsin C activity of cell lysates (Cathepsin C) | protection against KCN-induced necrosis, LDH release (U-937 cells) | protection against cyanide induced cell death, LDH release (PC12 cells [5]) | elastase-like activity of cell lysates (elastase-like activity [6]) | inhibition at 0.0001 µM (PC12 cells [4]) [%] | inhibition at 0.001 µM (PC12 cells [4]) [%] | inhibition at 0.01 µM (PC12 cells [4]) [%] | inhibition at 0.1 µM (PC12 cells [4]) [%] | inhibition at 1 µM (PC12 cells [4]) [%] | further results
1 | COC(=O)CCC(=O)N[C@@H](C)C(=O)N[C@@H](C)C(=O)N1CCC[C@H]1C(=O)N[C@@H](C)C(=O)CCl [EI II, MeOSuc-AAPA-CMK] (MeOSuc-AAPA-CH2Cl) | – | – | – | – | – | – | – | – | – | neurological severity score (NSS) ([1]; 100 μg into cisterna magna 1 min after trauma, 1 hour post injury): significantly reduce neurological damage; space of necrotic tissue, TTC staining ([1]; 100 μg into cisterna magna, untreated traumatized 50%): 25 % of the damaged hemisphere; induction of elastase-like enzymatic activity in intact cells (elastase-like activity [2]): abrogated the induction; cell viability (XTT) after KCN treatment (PC12 cells [3]): protective effect; KCN-induced necrotic cell death assessed by LDH release (PC12 cells [4]; PC12, KCN 5 hours, FIGS. 6, 7A-B): inhibited in a dose dependent manner; inhibition of necrosis induced by KCN at high concentrations (PC12 cells [4]; up to 300 μM): significantly inhibited necrosis; effect of inhibitor by itself on PC-12 cells (PC12 cells [4]; up to 300 μM, without KCN): inactive by themselves
2 | siRNA for Cathepsin C: siRNA for Cathepsin C silencing, ATGATCTGCATCAGTTGTAAA (SEQ ID NO: 1), Qiagen (listed as DNA, chemistry not given here) | stable and significant decrease | protective effect | significant protective effect | – | – | – | – | – | – | –
3 | siRNA for CELA1: siRNA for CELA1, CGGCAACATGCTGGTCCTTTA (SEQ ID NO: 2), Qiagen (listed as DNA, chemistry not given here) | no effect | partial protection | significant protective effect | stable and significant decrease | – | – | – | – | – | –
4 | siRNA for CELA3A: siRNA for CELA3A, CTGCCTTTGGCTGCAACTTCA (SEQ ID NO: 3), Qiagen (listed as DNA, chemistry not given here) | no effect | partial protection | significant protective effect | stable and significant decrease | – | – | – | – | – | –
5 | CCC(=O)N1CCN=C1N1CCN(C)CC1 [M059-0891, 1-(2-(4-methylpiperazin-1-yl)-4,5-dihydro-1H-imidazol-1-yl)propan-1-one] | – | – | – | – | 25 | 36 | 55 | 84 | 85 | necrosis and infarct size [7]: significant reduction
6 | O=C(c1csc(N2CCCCC2)n1)N1CCCC1 [Z601-4253, (2-(piperidin-1-yl)thiazol-4-yl)(pyrrolidin-1-yl)methanone] | – | – | – | – | 29 | 34 | 61 | 74 | 100 | ALT level in blood [8]: significantly reduced; AST level in blood [8]: significantly reduced
